Assay results taken from the supplement of paper PMC6045584.

Assays:
Experiment in all cases: area under dose-response curve of surviving fraction (unscaled, Aref=0) (surviving fraction x log10(nM)); higher = more resistant
Details in all cases: exposure time: 5 days; dose range 0.5-1000 nM
CRIZOTINIB = compound: C[C@@H](Oc1cc(-c2cnn(C3CCNCC3)c2)cnc1N)c1c(Cl)ccc(F)c1Cl [CRIZOTINIB]
Summary of the method: (§1)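 Surviving fractions were fitted by 3-parameter logistic regression in the drc R package to give dose-response survival curves. They came from tumour cell lines treated for five days with eight inhibitor concentrations from 0.5 to 1000 nM and read by CellTiter-Glo luminescence against DMSO-only wells. The area under the curve is the unscaled activity area. It was calculated over log10 dose with Aref = 0.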

SORAFENIB = compound: CNC(=O)c1cc(Oc2ccc(NC(=O)Nc3ccc(Cl)c(C(F)(F)F)c3)cc2)ccn1 [SORAFENIB]
Summary of the method: as §1

[1] = compound: COc1cc2ncnc(Nc3ccc(F)c(Cl)c3)c2cc1NC(=O)/C=C/CN1CCCCC1
Summary of the method: as §1

XAV-939 = compound: Oc1nc(-c2ccc(C(F)(F)F)cc2)nc2c1CSCC2 [XAV-939]
Summary of the method: as §1

[2] = compound: CCn1c(C(=O)N(C2CC2)C2CC2)cc2c3c(ncn3C)c(Nc3cc(C)n(C)n3)nc21
Summary of the method: as §1

MLN-4924 = compound: NS(=O)(=O)OC[C@@H]1C[C@@H](n2ccc3c(N[C@H]4CCc5ccccc54)ncnc32)C[C@@H]1O [MLN-4924]
Summary of the method: as §1

DASATINIB = compound: Cc1nc(Nc2ncc(C(=O)Nc3c(C)cccc3Cl)s2)cc(N2CCN(CCO)CC2)n1 [DASATINIB]
Summary of the method: as §1

[3] = compound: C[C@@H](Oc1cc(-c2cnn(C3CCNCC3)c2)cnc1N)c1c(Cl)ccc(F)c1Cl
Summary of the method: as §1

SOTRASTAURIN/AEB071 = compound: CN1CCN(c2nc(C3=C(c4c[nH]c5ccccc45)C(=O)NC3=O)c3ccccc3n2)CC1 [SOTRASTAURIN/AEB071]
Summary of the method: as §1

OLAPARIB = compound: O=C(c1cc(Cc2n[nH]c(=O)c3ccccc23)ccc1F)N1CCN(C(=O)C2CC2)CC1 [OLAPARIB]
Summary of the method: as §1

[4] = compound: CNCc1ccc(-c2[nH]c3cc(F)cc4c3c2CCNC4=O)cc1
Summary of the method: as §1

ABIRATERONE = compound: C[C@]12CC[C@H](O)CC1=CC[C@@H]1[C@@H]2CC[C@]2(C)C(c3cccnc3)=CC[C@@H]12 [ABIRATERONE]
Summary of the method: as §1

TEMOZOLOMIDE = compound: Cn1nnc2c(C(N)=O)ncn2c1=O [TEMOZOLOMIDE]
Summary of the method: as §1

FORETINIB = compound: COc1cc2c(Oc3ccc(NC(=O)C4(C(=O)Nc5ccc(F)cc5)CC4)cc3F)ccnc2cc1OCCCN1CCOCC1 [FORETINIB]
Summary of the method: as §1

Test System	area under dose-response curve (CRIZOTINIB)	area under dose-response curve (SORAFENIB)	area under dose-response curve [1]	area under dose-response curve (XAV-939)	area under dose-response curve [2]	area under dose-response curve (MLN-4924)	area under dose-response curve (DASATINIB)	area under dose-response curve [3]	area under dose-response curve (SOTRASTAURIN/AEB071)	area under dose-response curve (OLAPARIB)	area under dose-response curve [4]	area under dose-response curve (ABIRATERONE)	area under dose-response curve (TEMOZOLOMIDE)	area under dose-response curve (FORETINIB)
HCC1395 BREAST	4.21	3.88	3.19	2.87	3.71	3.56	2.59	3.01	3.61	3.21	2.92	3.7	3.46	–
NOS1 BONE	3.87	3.01	2.84	–	3.62	–	1.42	3.13	3.36	2.8	2.83	3.87	3.67	2.58
RDES SOFT TISSUE	–	3.76	–	4	4.17	2.44	2.92	2.6	3.42	3.41	3.42	4.04	3.9	2.73
MDAMB453 BREAST	–	3.59	3.06	3.47	3.37	2.43	3.37	3.17	3.19	3.22	3.18	3.51	3.62	–
NY BONE	–	3.41	3.15	3.27	3.17	2.47	2	2.97	3.48	3.27	–	3.56	3.45	2.96
MDAMB134 BREAST	–	3.71	–	3.4	3.44	2.2	2.13	2.51	2.77	3.02	2.86	3.48	3.51	–
MG63 BONE	–	3.52	3.25	3.05	3.25	2.01	1.88	2.86	3.44	3.26	3.36	–	3.4	2.87
SG28 HEADNECK	–	4.1	1.87	3.21	3.25	–	–	–	–	–	–	3.46	–	–
CME SYNOVIAL	–	4.2	4.38	4.09	4.04	2.38	2.06	3.05	4.01	2.56	2.5	4.4	4.38	–
HU09 BONE	3.03	2.68	3.08	–	3.49	2.59	1.76	2.79	–	–	3.06	3.7	3.28	2.28
SG31 HEADNECK	–	3.79	2.06	3.04	–	2.42	1.99	2.66	–	3.18	3.16	3.4	3.5	–
SUM149.B1*.S BREAST	3.8	3.92	3.06	3.73	3.62	2.42	2.05	3.1	3.26	–	–	3.93	3.73	–
93VU HEADNECK	3.62	3.6	1.8	3.51	3.21	2.42	1.68	3.15	3.06	–	3.13	3.9	3.5	3.15
ZR751 BREAST	–	3.69	2.6	2.68	2.89	–	2.99	2.77	3.67	3.57	3.07	–	3.24	–
SCC003 HEADNECK	–	3.6	2.29	–	–	3.02	2.38	3.05	3.42	3.28	3.45	3.79	3.57	3.21
JURKAT HAEMATOPOIETIC AND LYMPHOID TISSUE	2.68	3.55	3.18	3.29	3.54	1.92	2.79	2.75	3.54	–	3.28	3.49	–	3.02
143B BONE	–	3.46	3.27	–	3.44	–	–	3.2	–	3.36	–	3.51	–	–
SCC36 HEADNECK	–	3.74	1.81	–	3.52	2.11	1.53	2.51	3.02	2.84	2.8	3.63	3.63	3.13
SUM159 BREAST	3.63	3.15	3.52	–	–	3.12	2.84	3.42	3.57	3.45	3.53	3.35	3.44	–
HCC202 BREAST	–	–	1.81	–	4.17	–	–	4.02	–	2.74	–	3.88	–	–
SCC47 HEADNECK	–	3.24	2.3	3.53	3.18	2.46	2.21	3.1	3.57	3.46	3.48	3.98	3.61	–
BT20 BREAST	–	–	3.27	3.66	3.56	–	2.46	2.71	3.14	2.92	3.01	3.73	3.53	2.97
SKBR3 BREAST	–	3.35	1.36	–	3.41	2.05	2.96	2.88	3.01	3.09	2.69	3.53	3.54	–

Test System	area under dose-response curve (CRIZOTINIB)	area under dose-response curve (SORAFENIB)	area under dose-response curve [1]	area under dose-response curve (XAV-939)	area under dose-response curve [2]	area under dose-response curve (MLN-4924)	area under dose-response curve (DASATINIB)	area under dose-response curve [3]	area under dose-response curve (SOTRASTAURIN/AEB071)	area under dose-response curve (OLAPARIB)	area under dose-response curve [4]	area under dose-response curve (ABIRATERONE)	area under dose-response curve (TEMOZOLOMIDE)	area under dose-response curve (FORETINIB)
SJSA1 BONE	–	3.31	3.54	3.64	3.42	–	3.23	3.21	–	–	5.61	3.63	3.28	5.45
DU4475 BREAST	2.9	–	–	–	2.83	1.46	2.37	2.23	–	–	2.68	3.18	3.12	2.98
SAOS2 BONE	–	–	3.15	3.94	3.41	1.97	1.69	2.88	3.08	2.98	2.96	3.89	3.9	3.04
SUM44 BREAST	–	3.43	3.24	3.52	3.39	–	3.11	3.1	–	3.02	3.09	3.4	4.14	3.91
CAL72 BONE	–	3.59	3.26	3.18	3.63	2.83	1.77	3.32	3.55	3.24	3.26	3.67	3.47	3.09
YAMATO SYNOVIAL	2.3	4.27	4.37	4.04	4.14	–	2.5	1.83	3.66	–	–	4.72	4.22	2.34
VP229 BREAST	–	3.66	1.74	4.36	3.59	2.74	1.98	3.2	–	–	3.13	3.53	3.86	–
SCC90 HEADNECK	3.27	–	1.84	3.4	3.25	1.64	2.21	3.19	2.96	3.24	3.19	4.01	3.49	–
SG32 HEADNECK	–	4.91	2.87	3.64	3.55	2.59	1.29	2.92	–	–	2.77	–	4.29	2.95
HCC1806 BREAST	3.08	3.16	2.42	3.59	3.46	1.35	1.53	2.87	3.26	2.84	2.77	3.71	3.62	–
SIHA CERVIX	–	3.73	–	3.55	3.23	2.59	2.35	3.14	–	–	3.29	3.9	3.34	3.11
C33A CERVIX	3.26	3.69	2.14	3.08	3.14	2.13	1.29	3.07	3.68	–	3.29	–	3.18	3.09
BT549 BREAST	3.2	3.65	3.07	–	3.29	2.41	1.74	3.16	3.27	2.76	3	–	3.71	3.09
SG27 HEADNECK	3.57	3.79	3.28	–	3.25	2.95	2.16	3.15	3.57	3.27	–	3.22	3.68	3.23
HUO3N1 BONE	–	3.13	3.17	–	–	3.13	1.45	3.14	3.24	3.21	3.19	3.47	3.36	2.9
NCIH441 LUNG	–	–	3.01	3.35	3.28	2.76	2.55	3.16	3.4	3.38	3.19	3.41	3.69	3.13
ASKA SYNOVIAL	2.02	3.67	–	3.73	3.49	2.57	3.09	1.91	3.57	–	2.86	3.92	3.76	2.97
PCI30 HEADNECK	–	–	1.71	–	3.14	2.6	2.63	3.12	3.42	3.15	3.14	3.58	3.28	3.16
HCT15 LARGE INTESTINE	3.26	3.39	–	3.27	3.26	2.78	2.15	3.17	3.44	–	3.36	3.64	3.41	2.87
HCC1954 BREAST	–	3.17	1.98	3.2	2.83	2.34	0.867	1.37	2.92	3.08	2.54	–	3.75	–
MDAMB468 BREAST	3.08	3.82	2.43	–	3.4	2.17	2.57	3.05	3.12	2.89	2.75	3.46	3.67	–
CHLA90 AUTONOMIC GANGLIA	3.12	3.78	2.74	3.24	3.14	–	2.41	2.61	3.28	–	3.28	3.47	3.2	3
